Source: PubChem BioAssay (NCI)
“And” between values parts separate entries of the source, which are not always exact repeats. Identical values can stand only once.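 Tested at 5 concentrations; 48 h exposure; 96-well plates; endpoints linearly interpolated, else capped at highest concentration. The concentration for full growth arrest is given as TGI.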

These compounds were tested on SNB-19 CNS (assay: inhibition of tumour cell growth, NCI panel, 48 h).

First: O=C(/C=C/c1ccccc1)Oc1ccc(C(=O)/C=C/c2ccccc2)cc1
Second: N#CC(C#N)=C1SC(=Nc2ccccc2)C(=Nc2ccccc2)N1c1ccccc1
The TGI of the first is lower: 38.5 µM for the first, over 100 µM for the second.

`COc1cc2c(cc1OC)C(C(c1ccccc1)c1ccccc1)N(C)CC2` (configuration not stated) and `C[N+](C)([O-])CCOc1cc2c(c3ccccc13)-c1ccccc1C2=O` cannot be ordered by TGI: over 100 µM for the first, over 55.1 µM for the second.

`CCOC(=O)C1S/C(=N\C(=N)N[N+](=O)[O-])N=C1C` (configuration not stated) and `C=C(C(=O)OCC)C(=O)OCC` cannot be ordered by TGI: over 100 µM for the first, over 100 µM for the second.

`C/C(C[n+]1ccccc1)=N\N=C(N)N` and `CCOC(=O)c1cccc(N=Nc2nc[nH]c2/C=C/C(=O)OC)c1` cannot be ordered by TGI: over 100 µM for the first, over 100 µM for the second.

`O=[N+]([O-])C(=C(Nc1cccc2cccnc12)Nc1cccc2cccnc12)C(Cl)=C(Cl)Cl` and `CC(=NNC(=S)Nc1ccccc1)c1cccc(C(C)=NNC(=S)Nc2ccccc2)n1` cannot be ordered by TGI: over 100 µM for the first, over 100 µM for the second.

`NS(=O)(=O)c1ccc(NC(=S)/N=C/C2=C(O)c3ccccc3C2=O)cc1` and `Cc1ccc(S(=O)(=O)n2c3c(c4ccccc42)CCN2C[C@H]([C@H](C)Br)CC[C@@H]32)cc1` cannot be ordered by TGI: over 100 µM for the first, over 100 µM for the second.

`Cc1nc(C)c(C(=O)NNC(=O)C[N+](C)(C)C)cc1C(=O)NNC(=O)C[N+](C)(C)C` and `CC(C)(C)[Si](C)(C)OCC1OC(n2ccc(=O)[nH]c2=O)C(O[Si](C)(C)C(C)(C)C)/C1=C/C#N` (configuration not stated) cannot be ordered by TGI: over 100 µM for the first, over 100 µM for the second.

`NCCCN1c2ccccc2Sc2ccc(Cl)cc21` and `Clc1ccc(-c2nnc3sc4nc5ccccc5c-4nn23)c(Cl)c1` cannot be ordered by TGI: over 10 µM for the first, over 100 µM for the second.

Going from `CCCCCCCCCCCCCCCCNc1cccc2ccccc12` to `CCCCCCCCCCCC[S+](C)C`, the TGI falls from over 100 µM to 20.5 µM.

`CC(O)CNC(=O)C(C)Oc1ccc(OCC2CCCCC2)cc1` (configuration not stated) and `O=P(O)(O)C(N=C(Nc1ccccc1)Nc1ccccc1)P(=O)(O)O` cannot be ordered by TGI: over 100 µM for the first, over 100 µM for the second.

First: O=C1c2cc(-c3ccccc3)cnc2S(=O)(=O)N1c1ccc(Br)cc1
Second: COC1=CC(=O)c2c(c(-c3nc(C)cs3)cn2C)C1=O
The TGI of the first is lower: 35 µM for the first, over 100 µM for the second.

Going from `CCOS(C)(=O)=O` to `CC(C)SC(=S)Sc1c(Cl)c(Cl)nc(Cl)c1Cl`, the TGI falls from over 100 µM to 21.1 µM.

`CCOC(=O)N1CCC(N[C@@H]2c3cc4c(cc3C(c3cc(OC)c(O)c(OC)c3)C3C(=O)OC[C@@H]32)OCO4)CC1` (some centres not stated) was tested, and the TGI was 7.1 µM and 6.95 µM.

Each compound was assayed on LOX IMVI melanoma (assay: inhibition of tumour cell growth, NCI panel, 48 h).

`Cc1ccc(/C=N\NC2c3cc(Cl)ccc3Nc3nc(=O)[nH]c(C)c32)cc1` (configuration not stated) and `Clc1ccc(-c2nnc3sc4nc5ccccc5c-4nn23)c(Cl)c1` cannot be ordered by TGI: over 100 µM for the first, over 100 µM for the second.

`O=C(O)COc1ccccc1C(=O)Nc1ccccc1` and `O=P(O)(O)C(N=C(Nc1ccccc1)Nc1ccccc1)P(=O)(O)O` cannot be ordered by TGI: over 100 µM for the first, over 100 µM for the second.

`O=C(/C=C/c1ccccc1)Oc1ccc(C(=O)/C=C/c2ccccc2)cc1` and `N#CC(C#N)=C1SC(=Nc2ccccc2)C(=Nc2ccccc2)N1c1ccccc1` are within 1.5-fold of each other in TGI: 17.7 µM for the first, 24.4 µM for the second.

`COc1cc2c(cc1OC)C(C(c1ccccc1)c1ccccc1)N(C)CC2` (configuration not stated) and `C[N+](C)([O-])CCOc1cc2c(c3ccccc13)-c1ccccc1C2=O` cannot be ordered by TGI: over 100 µM for the first, over 47.4 µM for the second.

`CCOC(=O)C1S/C(=N\C(=N)N[N+](=O)[O-])N=C1C` (configuration not stated) and `C=C(C(=O)OCC)C(=O)OCC` cannot be ordered by TGI: over 100 µM for the first, over 100 µM for the second.

`C/C(C[n+]1ccccc1)=N\N=C(N)N` and `CCOC(=O)c1cccc(N=Nc2nc[nH]c2/C=C/C(=O)OC)c1` cannot be ordered by TGI: over 100 µM for the first, over 100 µM for the second.

`O=[N+]([O-])C(=C(Nc1cccc2cccnc12)Nc1cccc2cccnc12)C(Cl)=C(Cl)Cl` and `CC(=NNC(=S)Nc1ccccc1)c1cccc(C(C)=NNC(=S)Nc2ccccc2)n1` cannot be ordered by TGI: over 100 µM for the first, over 100 µM for the second.

`NS(=O)(=O)c1ccc(NC(=S)/N=C/C2=C(O)c3ccccc3C2=O)cc1` and `Cc1ccc(S(=O)(=O)n2c3c(c4ccccc42)CCN2C[C@H]([C@H](C)Br)CC[C@@H]32)cc1` cannot be ordered by TGI: over 100 µM for the first, over 100 µM for the second.

`Cc1nc(C)c(C(=O)NNC(=O)C[N+](C)(C)C)cc1C(=O)NNC(=O)C[N+](C)(C)C` and `CC(C)(C)[Si](C)(C)OCC1OC(n2ccc(=O)[nH]c2=O)C(O[Si](C)(C)C(C)(C)C)/C1=C/C#N` (configuration not stated) cannot be ordered by TGI: over 100 µM for the first, over 51.2 µM for the second.

Compared with `NCCCN1c2ccccc2Sc2ccc(Cl)cc21`, `O=C1c2cc(-c3ccccc3)cnc2S(=O)(=O)N1c1ccc(Br)cc1` is higher in TGI: 7.31 µM for the first, over 100 µM for the second.

Going from `CCCCCCCCCCCCCCCCNc1cccc2ccccc12` to `CCCCCCCCCCCC[S+](C)C`, the TGI falls from over 100 µM to 15.9 µM.

First: CC(O)CNC(=O)C(C)Oc1ccc(OCC2CCCCC2)cc1 (configuration not stated)
Second: COC1=CC(=O)c2c(c(-c3nc(C)cs3)cn2C)C1=O
The TGI of the first is higher: over 100 µM for the first, 22.8 µM for the second.

Compared with `CCOS(C)(=O)=O`, `CC(C)SC(=S)Sc1c(Cl)c(Cl)nc(Cl)c1Cl` is lower in TGI: over 100 µM for the first, 6.68 µM for the second.

`CCOC(=O)N1CCC(N[C@@H]2c3cc4c(cc3C(c3cc(OC)c(O)c(OC)c3)C3C(=O)OC[C@@H]32)OCO4)CC1` (some centres not stated) was tested, and the TGI was 7.97 µM and 12.4 µM.

The compounds below were run on M19-MEL melanoma (assay: inhibition of tumour cell growth, NCI panel, 48 h).

Compared with `Cc1ccc(/C=N\NC2c3cc(Cl)ccc3Nc3nc(=O)[nH]c(C)c32)cc1` (configuration not stated), `C[N+](C)([O-])CCOc1cc2c(c3ccccc13)-c1ccccc1C2=O` is lower in TGI: over 100 µM for the first, 36.2 µM for the second.

`O=C(O)COc1ccccc1C(=O)Nc1ccccc1` and `COc1cc2c(cc1OC)C(C(c1ccccc1)c1ccccc1)N(C)CC2` (configuration not stated) cannot be ordered by TGI: over 100 µM for the first, over 100 µM for the second.

`CCOC(=O)C1S/C(=N\C(=N)N[N+](=O)[O-])N=C1C` (configuration not stated) and `CC(O)CNC(=O)C(C)Oc1ccc(OCC2CCCCC2)cc1` (configuration not stated) cannot be ordered by TGI: over 100 µM for the first, over 100 µM for the second.

Compared with `CCCCCCCCCCCCCCCCNc1cccc2ccccc12`, `CCCCCCCCCCCC[S+](C)C` is lower in TGI: over 100 µM for the first, 6.45 µM for the second.

Work on `O=C1OCC/C1=N/O` yielded a TGI of over 100 µM.

In the case of `CCOC(=O)N1CCC(N[C@@H]2c3cc4c(cc3C(c3cc(OC)c(O)c(OC)c3)C3C(=O)OC[C@@H]32)OCO4)CC1` (some centres not stated), the TGI is reported as 12.8 µM and 10.2 µM.
